Test results taken from patent US20160228056A1, “DYNAMIC POSITRON EMISSION TOMOGRAPHY IMAGING” (THE GENERAL HOSPITAL CORPORATION, priority 2013, published 2016).
“Also recorded” adds a separate entry of the source.

Columns and labels:
[1] = blood radioactivity during the FDG infusion protocol; assay type: in vivo, human; conditions: constant infusion
Protocol: FDG was administered in saline intravenously at a constant infusion rate of 0.01 ml/s for 90 minutes to healthy subjects (1 female/2 males, mean age 32±2) using a Medrad® Spectra Solaris syringe pump. In a separate experiment, FDG was administered as a traditional bolus injection (5 mCi administered in 5 mL saline over ˜30 seconds) during rest for 3 additional healthy subjects (1 female/2 males, mean age 29±3). Venous blood samples were collected in all subjects during scanning, then centrifuged to obtain plasma, and aliquoted in a gamma counter that had been precalibrated to the PET scanner to measure the venous activity during the experiment. The fPET-FDG data were binned into 90 one-minute frames. The reconstructed volume was down-sampled to 76 slices with 128×128 voxels (2.5×2.5×2.5 mm^3) with one minute time frames. For bolus FDG comparison studies, data were processed as a single frame (40-70 minutes post injection) and analogously down-sampled. Standardized Uptake Values (SUVs) were normalized to gray matter uptake for each subject.
FDG in saline solution was administered intravenously at a constant infusion rate of 0.01 ml/s for 90 min to healthy subjects (1 female/2 males, mean age 32±2 years) using a Medrad® Spectra Solaris syringe pump (initial activity=5±0.6 mCi). […]

glucose utilization = assay: fPET-FDG constant infusion with checkerboard visual stimulation; assay type: in vivo, human; conditions: for mean percent increase in glucose utilization derived from fPET-FDG: fixed-effect group analysis, three subjects
Protocol: To interrogate dynamic metabolic information, a 90-minute constant FDG infusion paradigm was used (0.01 ml/s, 5 mCi total calculated to the beginning of infusion), during which we periodically presented a conventional visual stimulus consisting of an 8-Hz counterphase flickering “checkerboard” pattern as shown in FIG. 2A. The stimulus was projected on a screen mounted at the end of the magnet bore, and subjects (n=3) viewed the stimulus through a mirror. We used three different stimuli: two full-field checkerboard stimulus periods for a duration of 10 minutes each, and two hemi-field checkerboard stimulus periods (right and left) for a duration of 5 minutes each (FIG. 2A). This design allowed us to confirm that the observed metabolic signal changes were specific to the stimuli, and also that multiple stimuli (four in this case) can be measured dynamically during a single scan of a single subject. In addition to our dynamic analysis, the fPET-FDG data were also binned into 90 one-minute frames using previously published methods (see, Catana et al., J Nucl Med 51, 1431, September, 2010; and Catana et al., J Nucl Med 52, 154, January 2011). During the fPET-FDG scan, functional MR data were simultaneously collected using a Siemens BrainPET scanner. BOLD data were collected prior to and during the first 10 minute full-field checkerboard and the two hemi-field checkerboard stimuli; and ASL data were collected prior to and during the second 10 minute full-field checkerboard stimulus.
FDG was delivered at a constant rate during our fPET studies. At steady state, the rate of FDG utilization in a given voxel is proportional to the slope of the radioactivity accumulated in that voxel. As shown in Example 1 below, during steady state the slope of the voxelwise FDG uptake from fPET can be represented as: slope=(CMRglu*LC*Cp)/Ca^o where LC is the lumped constant which converts FDG metabolic rate to glucose metabolic rate, Ca^o is a measurement of plasma glucose (see, Reivich et al., Circ Res 44, 127, January 1979; and Phelps et al., Ann Neurol 6, 371, November 1979), and Cp is the plasma radioactivity concentration (which is controlled through constant infusion). The slope is an approximation for (K1k3)/(k2+k3) scaled by Cp and is thus analogous to Ki (the influx rate constant) determined by a linear approximation of a bolus FDG injection by Patlak analysis (see, Patlak et al., J Cereb Blood Flow Metab 3, 1, Mar. 1983; and Lucignani et al., J Nucl Med 34, 360, March 1993). Changes in slope are thus proportional to changes in CMRglu. By taking the derivative of the fPET-FDG uptake time course estimated using pairwise subtraction of the 90 one minute frames to form a relative index of uptake rate, we generated a time series akin to a BOLD fMRI signal to represent change in CMRglu. We then used fMRI software, FSL's (FMRIB Software Library) FEAT (see Jenkinson et al., Neuroimage 62, 782, Aug. 15, 2012) to process the fPET-FDG data using a generalized linear model (GLM) with 3 different explanatory variables (EV): (i) 2 blocks of the 10 minutes full-field checkerboard paradigm (EV1), (ii) a 5 minute block of left hemi-field checkerboard (EV2) and (iii) a 5 minute block of right hemi-field checkerboard (EV3). Confirmation of functional specificity is inherent in our analyses given that both hemispheres of the visual system respond equally to the full-field checkerboard whereas the contralateral hemisphere has a higher response to a hemi-field checkerboard. […]

[2] = cited from earlier work; for K1 (rate constant, transport from blood to brain) / k2 (rate constant, transport back from brain to blood) / k3 (rate constant, phosphorylation in the brain tissue): two-tissue compartment model (Reivich et al., 1985)
cerebral blood flow = assay: non-human primate hypercapnia experiment with fPET-FDG and ASL CBF; assay type: in vivo, baboon
Text: To assess the influence of cerebral blood flow changes on FDG signal we administered inhaled carbon dioxide, a strong vasodilatory stimulus, to two baboons (2 females, ˜10-12 kg) simultaneously with fPET-FDG and arterial spin labeling (ASL) MRI for CBF measurements. The protocol was approved by the Institutional Animal Care and Use Committee. Animals were anesthetized with isoflurane (1%) and mechanically ventilated. Physiological parameters were continuously monitored and maintained within the normal range. All images were acquired on the same 3T Siemens TIM-Trio with a BrainPET insert as the human data, using a custom PET-compatible 8-channel array coil. Similar to the human protocol, ˜5 mCi of FDG was continuously infused intravenously at a rate of 0.01 mL/sec for each study. PET data were stored in list mode and binned into 1-minute frames. Dual echo pseudo-continuous arterial spin labeling (pCASL) data were acquired simultaneously (TR/TE1/TE2=4000/12/30 ms, 2.2×2.2×4 mm) (Wey et al., 2010). During a 50 minute dynamic fPET/fMRI scan, a hypercapnic challenge (7% CO2) was given for 10 minutes between 30 and 40 minutes. All data were motion and slice-time corrected, skull stripped, spatially smoothed and registered to a standard NHP atlas. Percent changes in gray matter CBF were calculated.

[3] = 10 minute full checkerboard, average of 3 subjects, exponential fit

Row | Molecule | blood radioactivity during the infusion protocol, maximum ([1]; venous plasma blood) | blood radioactivity during the infusion protocol, average ([1]; whole blood) | tau of the exponential decrease in FDG signal after the end of the activation (glucose utilization; [3]) | tau of the exponential increase in FDG signal after the beginning of the activation (glucose utilization; [3]) | mean percent increase in glucose utilization derived from fPET-FDG (glucose utilization; full-field checkerboard vs baseline) | mean percent increase in glucose utilization derived from fPET-FDG (glucose utilization; left hemi-field checkerboard vs baseline) | mean percent increase in glucose utilization derived from fPET-FDG (glucose utilization; right hemi-field checkerboard vs baseline) | extraction fraction ([2]; brain) | K1 (rate constant, transport from blood to brain) [2] | k2 (rate constant, transport back from brain to blood) [2] | k3 (rate constant, phosphorylation in the brain tissue) [2] | CBF increase on average (cerebral blood flow; gray matter, ASL, 10 minutes of hypercapnia (7% CO2), anesthetized baboon) | effect on FDG uptake rate / FDG signal slope (cerebral blood flow; hypercapnia (7% CO2) between 30 and 40 minutes of 50 minute FDG infusion, baboon) | CBF change at maximum (cerebral blood flow; hypercapnia stimulus (7% CO2), baboon)
1 | 2-[^18F]-fluoro-2-deoxyglucose [FDG] | 4 kBq/cc | 4 kBq/cc | 5.6 min | 4.9 min | 25% | 26% | 28% | 4% | 0.1 mL/min | 0.15 min⁻¹ | 0.08 min⁻¹ | – | – | –
2 | OCC1OC(O)CC(O)C1O (centres unmarked) [deoxyglucose] | – | – | – | – | – | – | – | – | ~0.1 mL/min | ~0.15 min⁻¹ | ~0.08 min⁻¹ | – | – | –
3 | O=C=O [carbon dioxide] | – | – | – | – | – | – | – | – | – | – | – | 70% | did not alter FDG uptake rate; also recorded: did not induce any measurable change | 120%
